In assay [1] the test system is HT-22. The assay can be described thus: Neuroprotective activity against glutamate-induced neuronal cell death in mouse HT22 cells at 10 to 20 uM by microscopic analysis. It is filed as functional, cell-based.
The subject of assay [2] is HT-22. The experiment in a line: Neuroprotective activity against glutamate-induced neuronal cell death in mouse HT22 cells assessed as increase in cell viability at 20 to 50 uM after 24 hrs by MTT assay. Type of assay: functional, cell-based. For orientation: Formazan colour is commonly taken as a measure of viable cells.
Assay [3] is described as follows: Antioxidant activity assessed as DPPH free radical scavenging activity up to 15 uM incubated for 30 mins. Type of assay: functional. (In general: Loss of DPPH colour is used to gauge radical scavenging.)
Assay [4] concerns HT-22. The assay can be described thus: Antioxidant activity in mouse HT22 cells assessed as reduction in glutamate-induced increase in intracellular reactive oxygen species level at 10 to 20 uM after 8 hrs by H2DCFDA staining based fluorescence microscopic analysis. Type of assay: functional, cell-based.
The test system of assay [5] is HT-22. The experiment in a line: Neuroprotective activity against glutamate-induced neuronal cell death in mouse HT22 cells assessed as reduction in intracellular calcium level at 10 to 20 uM after 8 hrs by fluorescence microscopic analysis. It is filed as functional, cell-based. (In general: Calcium assays in cells follow changes in intracellular calcium, usually with a dye or a luminescent sensor.)

In assay [6] the target is Mitogen-activated protein kinase 1 and 3 (ERK2 and ERK1) (Mus musculus) (UniProt P63085+Q63844). The assay can be described thus: Inhibition of glutamate-induced ERK1/2 phosphorylation in mouse HT22 cells at 10 to 20 after 8 hrs by Western blot analysis. It is filed as cell-based.
Sequence of Mitogen-activated protein kinase 1 and 3 (ERK2 and ERK1) (Mus musculus) (P63085 whole entry, looked up): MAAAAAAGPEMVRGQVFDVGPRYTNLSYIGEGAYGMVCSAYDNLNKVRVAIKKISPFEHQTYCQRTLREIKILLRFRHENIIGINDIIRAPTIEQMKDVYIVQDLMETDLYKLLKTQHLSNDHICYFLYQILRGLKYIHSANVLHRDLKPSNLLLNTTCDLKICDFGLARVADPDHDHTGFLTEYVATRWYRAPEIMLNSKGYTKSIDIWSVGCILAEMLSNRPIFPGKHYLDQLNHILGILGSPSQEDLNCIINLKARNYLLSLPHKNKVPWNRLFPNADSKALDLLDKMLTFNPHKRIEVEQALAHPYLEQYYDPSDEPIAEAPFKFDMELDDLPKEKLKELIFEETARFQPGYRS
Sequence of Mitogen-activated protein kinase 1 and 3 (ERK2 and ERK1) (Mus musculus) (Q63844 whole entry, looked up): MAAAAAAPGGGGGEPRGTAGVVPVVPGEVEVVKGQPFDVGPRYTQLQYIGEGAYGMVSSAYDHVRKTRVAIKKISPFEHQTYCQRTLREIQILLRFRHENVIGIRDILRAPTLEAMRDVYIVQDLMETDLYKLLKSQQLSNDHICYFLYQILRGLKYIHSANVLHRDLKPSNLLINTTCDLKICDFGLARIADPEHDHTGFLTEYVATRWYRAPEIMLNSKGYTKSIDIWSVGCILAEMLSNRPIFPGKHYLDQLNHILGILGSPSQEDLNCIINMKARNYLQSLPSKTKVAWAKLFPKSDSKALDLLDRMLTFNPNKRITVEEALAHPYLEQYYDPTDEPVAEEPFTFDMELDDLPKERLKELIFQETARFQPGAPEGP
Another assay is filed under the species Mus musculus. The experiment in a line: Inhibition of glutamate-induced JNK phosphorylation in mouse HT22 cells at 10 to 20 after 8 hrs by Western blot analysis. Type of assay: cell-based.
The target in assay [7] is MAP kinase p38 (Mus musculus) (UniProt P47811+O08911+Q9WUI1+Q9Z1B7). The experiment in a line: Inhibition of glutamate-induced p38 MAPK phosphorylation in mouse HT22 cells at 10 to 20 after 8 hrs by Western blot analysis. It is filed as cell-based.
Assay [8] deals with HT-22. The assay can be described thus: Inhibition of glutamate-induced apoptosis in mouse HT22 cells assessed as apoptotic cells at 10 uM after 12 hrs by AlexaFluor 488-Annexin V/propidium iodide staining-based assay (reference value: 54%). Type of assay: functional. Conditions: HT-22, 12 h.
Assay [9] deals with HT-22. The experiment in a line: Inhibition of glutamate-induced apoptosis in mouse HT22 cells assessed as apoptotic cells at 20 uM after 12 hrs by AlexaFluor 488-Annexin V/propidium iodide staining-based assay (reference value: 54%). Type of assay: functional. The conditions noted are these: HT-22, 12 h.
For assay [10], the system named is HT-22. The experiment in a line: Neuroprotective activity against glutamate-induced neuronal cell death in mouse HT22 cells assessed as increase in cell viability at 0.5 to 5 uM after 24 hrs by MTT assay. It is filed as functional, cell-based.

2 compounds from ChEMBL document CHEMBL4371019, “Sanguiin H-11 from Sanguisorbae radix protects HT22 murine hippocampal cells against glutamate-induced death” (2019) can be followed below.

By inhibition is commonly meant how much of the control response was suppressed.

The source made the active and inactive calls. The calls are words filed in the database; no cut-off is given here.

As to `O=C(O[C@@H]1O[C@@H]2COC(=O)c3cc(O)c(O)c(O)c3-c3c(cc(O)c(O)c3O)C(=O)O[C@H]2[C@@H]2OC(=O)c3cc(O)c(O)c(O)c3-c3c(cc(O)c(O)c3O)C(=O)O[C@@H]12)c1cc(O)c(O)c(O)c1`, the result (with HT-22 [1]; in the assay on HT-22 [2]; in [3]; in the assay on HT-22 [4]; in the assay on HT-22 [5]) was Active. Besides, the inhibition result (in assay [6]; in the assay listed under Mus musculus; in assay [7]) was “Active” each time. Moreover, the inhibition at 10 µM with HT-22 [8] was determined as 12.7%. For the same compound, the inhibition at 20 µM with HT-22 [9] turned out to be 8.5%.

As to `CC(=O)N[C@@H](CS)C(=O)O`, the result in the assay on HT-22 [10] was Active.
